Assay results as given in patent publication US20100061928A1, “LABELLED ANALOGUES OF HALOBENZAMIDES AS RADIOPHARMACEUTICALS” (Institut National De La Sante et De La Recherche Medicale …, priority 2006, published 2010).
Structures can show the parent of a compound that is named as a salt. Blank lines part the entries; values can stand above or below the molecule they belong to.

How the values were obtained:
[1] = Elimination of the molecules: cumulative urinary and faecal excretion 0-72 hours; format: in vivo, mouse; details: for Faecal elimination 0-72 hours (Faeces) / Urinary and faecal elimination 0-72 hours (Total) / Urinary elimination 0-72 hours (Urine): cumulative excretion 0-72 hours; for Faecal elimination 0-72 hours (Faeces) / Urinary elimination 0-72 hours (Urine): mice in metabolic cages; for Urinary and faecal elimination 0-72 hours (Total): urine + faeces
[2] = system: tumour; test: Dosimetry with regard to the tumour (MIRD programme, extrapolated to ^131I); details: for Effective period: extrapolated to 131I labelling; for Biological period: from biodistribution data
[3] = system: grafted B16 F0 murine melanoma tumour; test: Biodistribution of the ^125I-labelled molecules in the melanoma-bearing mouse (autoradiography of whole-body sections); details: for Biodistribution, Mean, B 16: B 16 tumour

Faecal elimination 0-72 hours (Faeces) [1]: 69.2% | Urinary and faecal elimination 0-72 hours (Total) [1]: 93.0% | Urinary elimination 0-72 hours (Urine) [1]: 23.8% | elimination route (in words) ([1]; urinary versus faecal, 0-72 hours): faecal route predominates | Effective period [2]: 49.4 h | Biological period [2]: 66.3 hours | Biodistribution, Mean, B 16 ([3]; 1 H): 4.69 | Biodistribution, Mean, B 16 ([3]; 3 H): 4.05 | Biodistribution, Mean, B 16 ([3]; 6 H): 5.81 | Biodistribution, Mean, B 16 ([3]; 24 H): 2.74 | Biodistribution, Mean, B 16 ([3]; 72 H): 2.35 | Biodistribution, Mean, Ic ([3]; 1 H): 52.94 | Biodistribution, Mean, Ic ([3]; 3 H): 90.12 | Biodistribution, Mean, Ic ([3]; 6 H): 61.06 | Biodistribution, Mean, Ic ([3]; 24 H): 1.62 | Biodistribution, Mean, Ic ([3]; 72 H): 0.70 | Biodistribution, Mean, Sc ([3]; 1 H): 12.74 | Biodistribution, Mean, Sc ([3]; 3 H): 9.93 | Biodistribution, Mean, Sc ([3]; 6 H): 22.27 | Biodistribution, Mean, Sc ([3]; 24 H): 0.13 | Biodistribution, Mean, blood ([3]; 1 H): 0.42 | Biodistribution, Mean, blood ([3]; 3 H): 0.23 | Biodistribution, Mean, blood ([3]; 6 H): 0.17 | Biodistribution, Mean, blood ([3]; 24 H): 0.22 | Biodistribution, Mean, brain ([3]; 1 H): 0.07 | Biodistribution, Mean, brain ([3]; 6 H): 0.08 | Biodistribution, Mean, brain ([3]; 24 H): 0.04 | Biodistribution, Mean, brain ([3]; 72 H): 0.10 | Biodistribution, Mean, kidney ([3]; 1 H): 2.80 | Biodistribution, Mean, kidney ([3]; 3 H): 0.80 | Biodistribution, Mean, kidney ([3]; 6 H): 0.20 | Biodistribution, Mean, kidney ([3]; 24 H): 0.03 | Biodistribution, Mean, liver ([3]; 1 H): 5.16 | Biodistribution, Mean, liver ([3]; 3 H): 1.84 | Biodistribution, Mean, liver ([3]; 6 H): 0.32 | Biodistribution, Mean, liver ([3]; 24 H): 0.07 | Biodistribution, Mean, lungs ([3]; 1 H): 2.06 | Biodistribution, Mean, lungs ([3]; 3 H): 0.88 | Biodistribution, Mean, lungs ([3]; 6 H): 0.15 | Biodistribution, Mean, lungs ([3]; 24 H): 0.04 | Biodistribution, Mean, muscle ([3]; 1 H): 0.92 | Biodistribution, Mean, muscle ([3]; 3 H): 0.13 | Biodistribution, Mean, muscle ([3]; 6 H): 0.01 | Biodistribution, Mean, pancreas ([3]; 1 H): 5.74 | Biodistribution, Mean, pancreas ([3]; 3 H): 0.96 | Biodistribution, Mean, pancreas ([3]; 6 H): 1.08 | Biodistribution, Mean, spleen ([3]; 1 H): 1.24 | Biodistribution, Mean, spleen ([3]; 3 H): 0.28 | Biodistribution, Mean, spleen ([3]; 6 H): 0.26 | Biodistribution, Mean, spleen ([3]; 24 H): 0.15 | Biodistribution, Mean, thyroid ([3]; 3 H): 4.33 | Biodistribution, Mean, thyroid ([3]; 6 H): 8.55 | Biodistribution, Mean, thyroid ([3]; 24 H): 5.09 | Biodistribution, Mean, thyroid ([3]; 72 H): 9.83 | Biodistribution, Mean, uvea ([3]; 1 H): 5.12 | Biodistribution, Mean, uvea ([3]; 3 H): 5.66 | Biodistribution, Mean, uvea ([3]; 6 H): 5.18 | Biodistribution, Mean, uvea ([3]; 24 H): 3.5 | Biodistribution, Mean, uvea ([3]; 72 H): 6.79
SMILES: CCN(CC)CCNC(=O)c1c[nH]c2ccc(I)cc2c1=O [compound 35, N-(2-diethylaminoethyl)-1,4-dihydro-6-iodo-4-oxoquinoline-3-carboxamide dihydrochloride]

Faecal elimination 0-72 hours (Faeces) [1]: 21.2% | Urinary and faecal elimination 0-72 hours (Total) [1]: 71.1% | Urinary elimination 0-72 hours (Urine) [1]: 49.9% | Effective period [2]: 43.6 h | Biological period [2]: 56.3 hours | Biodistribution, Mean, B 16 ([3]; 1 H): 7.27 | Biodistribution, Mean, B 16 ([3]; 3 H): 7.12 | Biodistribution, Mean, B 16 ([3]; 6 H): 7.92 | Biodistribution, Mean, B 16 ([3]; 24 H): 7.05 | Biodistribution, Mean, B 16 ([3]; 72 H): 3.13 | Biodistribution, Mean, Ic ([3]; 1 H): 42.97 | Biodistribution, Mean, Ic ([3]; 3 H): 68.64 | Biodistribution, Mean, Ic ([3]; 6 H): 29.16 | Biodistribution, Mean, Ic ([3]; 24 H): 1.70 | Biodistribution, Mean, Sc ([3]; 1 H): 23.01 | Biodistribution, Mean, Sc ([3]; 3 H): 19.05 | Biodistribution, Mean, Sc ([3]; 6 H): 28.44 | Biodistribution, Mean, Sc ([3]; 24 H): 0.75 | Biodistribution, Mean, blood ([3]; 1 H): 2.15 | Biodistribution, Mean, blood ([3]; 3 H): 2.65 | Biodistribution, Mean, blood ([3]; 6 H): 2.17 | Biodistribution, Mean, brain ([3]; 1 H): 0.30 | Biodistribution, Mean, brain ([3]; 3 H): 0.09 | Biodistribution, Mean, kidney ([3]; 1 H): 4.62 | Biodistribution, Mean, kidney ([3]; 3 H): 2.66 | Biodistribution, Mean, kidney ([3]; 6 H): 2.11 | Biodistribution, Mean, liver ([3]; 1 H): 3.86 | Biodistribution, Mean, liver ([3]; 3 H): 2.02 | Biodistribution, Mean, liver ([3]; 6 H): 1.54 | Biodistribution, Mean, liver ([3]; 24 H): 0.43 | Biodistribution, Mean, lungs ([3]; 1 H): 3.68 | Biodistribution, Mean, lungs ([3]; 3 H): 2.76 | Biodistribution, Mean, lungs ([3]; 6 H): 2.05 | Biodistribution, Mean, muscle ([3]; 1 H): 0.74 | Biodistribution, Mean, muscle ([3]; 3 H): 0.43 | Biodistribution, Mean, pancreas ([3]; 1 H): 2.39 | Biodistribution, Mean, spleen ([3]; 1 H): 2.83 | Biodistribution, Mean, spleen ([3]; 72 H): 1.62 | Biodistribution, Mean, thyroid ([3]; 1 H): 16.88 | Biodistribution, Mean, thyroid ([3]; 3 H): 35.71 | Biodistribution, Mean, thyroid ([3]; 6 H): 48.93 | Biodistribution, Mean, thyroid ([3]; 24 H): 88.65 | Biodistribution, Mean, thyroid ([3]; 72 H): 132.79 | Biodistribution, Mean, uvea ([3]; 1 H): 18.08 | Biodistribution, Mean, uvea ([3]; 3 H): 13.87 | Biodistribution, Mean, uvea ([3]; 6 H): 18.02 | Biodistribution, Mean, uvea ([3]; 24 H): 14.55 | Biodistribution, Mean, uvea ([3]; 72 H): 9.73
SMILES: CCN(CC)CCNC(=O)c1cc2c(I)cccc2cn1 [compound 39, N-(2-diethylaminoethyl)-5-iodoisoquinoline-3-carboxamide dihydrochloride]
